Patent US9745321B2, “Fused pyrimidine compound, intermediate, preparation method therefor, and composition and application thereof” (SHANGHAI YINGLI PHARMACEUTICAL CO., LTD, priority 2013, dated 2017)

Key:
PI3Kδ = PI3Kδ (Homo sapiens (Human), UniProt O00329); experiment: PI3Kδ enzyme activity inhibition IC50 evaluation assay; type: biochemical; settings: luminescence, 25 μM ATP, 50 μM PIP2, 2 hrs room temperature
Method: (§1) PI3Kα, PI3Kδ, PI3Kβ and PI3Kγ Enzyme Activity Inhibition IC50 Evaluation Assay
• 1. Buffer preparation: 50 mM HEPES, pH 7.5, 3 mM MgCl2, 1 mM EGTA, 100 mM NaCl, 0.03% CHAPS. • 2. Compound was formulated in 100% DMSO in a concentration gradient, and added to a 384-well plate to a final DMSO concentration of 1%. • 3. PI3Kα, PI3Kδ, PI3Kβ and PI3Kγ enzymes were diluted to an optimum concentration with the following buffer: 50 mM HEPES, pH 7.5, 3 mM MgCl2, 1 mM EGTA, 100 mM NaCl, 0.03% CHAPS, 2 mM DTT, and transferred to a 384-well plate and incubated with the compound for a certain time. • 4. […] For PI3Kβ and PI3Kγ, it was still necessary to further add 10 μL ADP-Glo Detection Reagent, and then equilibrated at room temperature for 30 minutes. • 5. Read Luminescense with FlexStation, and calculate the inhibition rate as the average of two tests.

PI3Kα = PI3Kα (Homo sapiens (Human), UniProt P42336); experiment: PI3Kα enzyme activity inhibition IC50 evaluation assay; type: biochemical; settings: ratio PI3Kα vs PI3Kδ
Sequence of PI3Kα (P42336 whole entry): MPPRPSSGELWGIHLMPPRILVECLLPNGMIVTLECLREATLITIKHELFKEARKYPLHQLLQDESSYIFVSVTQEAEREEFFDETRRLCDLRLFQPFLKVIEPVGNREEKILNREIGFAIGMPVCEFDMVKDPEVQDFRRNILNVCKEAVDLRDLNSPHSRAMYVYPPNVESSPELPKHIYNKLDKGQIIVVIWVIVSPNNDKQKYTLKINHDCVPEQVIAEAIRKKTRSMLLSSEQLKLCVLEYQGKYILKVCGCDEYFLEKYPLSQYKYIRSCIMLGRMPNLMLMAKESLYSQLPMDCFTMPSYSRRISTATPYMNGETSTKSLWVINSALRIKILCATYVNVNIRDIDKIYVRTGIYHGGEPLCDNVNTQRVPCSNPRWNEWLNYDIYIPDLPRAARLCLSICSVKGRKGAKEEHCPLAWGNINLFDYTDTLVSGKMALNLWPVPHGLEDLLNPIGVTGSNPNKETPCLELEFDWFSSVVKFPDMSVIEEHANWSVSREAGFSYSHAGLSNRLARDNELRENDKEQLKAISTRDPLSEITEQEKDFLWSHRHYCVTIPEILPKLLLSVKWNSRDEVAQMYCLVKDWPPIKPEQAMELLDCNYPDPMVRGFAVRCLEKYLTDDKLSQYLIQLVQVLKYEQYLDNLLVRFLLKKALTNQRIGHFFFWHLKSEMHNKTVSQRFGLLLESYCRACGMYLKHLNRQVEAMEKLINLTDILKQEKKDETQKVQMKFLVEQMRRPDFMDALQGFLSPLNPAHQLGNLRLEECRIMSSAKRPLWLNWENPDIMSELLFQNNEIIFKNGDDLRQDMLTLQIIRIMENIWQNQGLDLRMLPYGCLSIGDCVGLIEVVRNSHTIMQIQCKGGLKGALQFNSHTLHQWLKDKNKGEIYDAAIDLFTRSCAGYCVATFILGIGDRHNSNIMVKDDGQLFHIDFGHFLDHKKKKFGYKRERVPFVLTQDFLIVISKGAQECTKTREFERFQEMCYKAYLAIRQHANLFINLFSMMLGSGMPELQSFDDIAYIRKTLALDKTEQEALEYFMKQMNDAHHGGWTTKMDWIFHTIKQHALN
Sequence of PI3Kα (P27986 whole entry partner): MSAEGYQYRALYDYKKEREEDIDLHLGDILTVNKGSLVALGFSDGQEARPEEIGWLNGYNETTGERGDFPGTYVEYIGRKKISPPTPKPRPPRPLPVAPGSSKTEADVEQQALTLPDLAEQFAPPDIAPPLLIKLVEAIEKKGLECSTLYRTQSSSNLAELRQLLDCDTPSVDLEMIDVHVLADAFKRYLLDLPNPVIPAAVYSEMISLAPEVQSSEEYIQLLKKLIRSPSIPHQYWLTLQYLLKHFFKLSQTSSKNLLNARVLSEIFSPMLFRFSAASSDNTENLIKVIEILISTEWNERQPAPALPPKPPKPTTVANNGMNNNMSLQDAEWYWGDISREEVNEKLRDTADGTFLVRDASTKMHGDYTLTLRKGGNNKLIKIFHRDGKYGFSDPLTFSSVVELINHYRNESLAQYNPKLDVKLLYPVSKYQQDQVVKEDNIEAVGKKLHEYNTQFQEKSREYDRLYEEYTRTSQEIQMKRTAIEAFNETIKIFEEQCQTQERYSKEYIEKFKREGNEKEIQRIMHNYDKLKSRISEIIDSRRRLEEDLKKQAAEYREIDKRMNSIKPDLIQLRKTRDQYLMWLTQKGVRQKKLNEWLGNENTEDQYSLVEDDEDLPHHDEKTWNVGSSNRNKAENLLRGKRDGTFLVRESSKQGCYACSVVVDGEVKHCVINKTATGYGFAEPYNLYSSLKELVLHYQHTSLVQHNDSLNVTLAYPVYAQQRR
Method: as §1
• 1. Buffer preparation: 50 mM HEPES, pH 7.5, 3 mM MgCl2, 1 mM EGTA, 100 mM NaCl, 0.03% CHAPS. • 2. Compound was formulated in 100% DMSO in a concentration gradient, and added to a 384-well plate to a final DMSO concentration of 1%. • 3. PI3Kα, PI3Kδ, PI3Kβ and PI3Kγ enzymes were diluted to an optimum concentration with the following buffer: 50 mM HEPES, pH 7.5, 3 mM MgCl2, 1 mM EGTA, 100 mM NaCl, 0.03% CHAPS, 2 mM DTT, and transferred to a 384-well plate and incubated with the compound for a certain time. • 4. Substrate was diluted to an optimum concentration with the following buffer: 50 mM HEPES, pH 7.5, 3 mM MgCl2, 1 mM EGTA, 100 mM NaCl, 0.03% CHAPS, 2 mM DTT, 50 μM PIP2, 25 μM ATP; then added to a 384-well plate to initiate the reaction, and for PI3Kα, PI3Kβ and PI3Kγ at room temperature reacted for 1 hr, for PI3Kδ at room temperature reacted for 2 hrs. For PI3Kβ and PI3Kγ, it was still necessary to further add 10 μL ADP-Glo Detection Reagent, and then equilibrated at room temperature for 30 minutes. • 5. Read Luminescense with FlexStation, and calculate the inhibition rate as the average of two tests.

Sequence of PI3Kδ (O00329 whole entry): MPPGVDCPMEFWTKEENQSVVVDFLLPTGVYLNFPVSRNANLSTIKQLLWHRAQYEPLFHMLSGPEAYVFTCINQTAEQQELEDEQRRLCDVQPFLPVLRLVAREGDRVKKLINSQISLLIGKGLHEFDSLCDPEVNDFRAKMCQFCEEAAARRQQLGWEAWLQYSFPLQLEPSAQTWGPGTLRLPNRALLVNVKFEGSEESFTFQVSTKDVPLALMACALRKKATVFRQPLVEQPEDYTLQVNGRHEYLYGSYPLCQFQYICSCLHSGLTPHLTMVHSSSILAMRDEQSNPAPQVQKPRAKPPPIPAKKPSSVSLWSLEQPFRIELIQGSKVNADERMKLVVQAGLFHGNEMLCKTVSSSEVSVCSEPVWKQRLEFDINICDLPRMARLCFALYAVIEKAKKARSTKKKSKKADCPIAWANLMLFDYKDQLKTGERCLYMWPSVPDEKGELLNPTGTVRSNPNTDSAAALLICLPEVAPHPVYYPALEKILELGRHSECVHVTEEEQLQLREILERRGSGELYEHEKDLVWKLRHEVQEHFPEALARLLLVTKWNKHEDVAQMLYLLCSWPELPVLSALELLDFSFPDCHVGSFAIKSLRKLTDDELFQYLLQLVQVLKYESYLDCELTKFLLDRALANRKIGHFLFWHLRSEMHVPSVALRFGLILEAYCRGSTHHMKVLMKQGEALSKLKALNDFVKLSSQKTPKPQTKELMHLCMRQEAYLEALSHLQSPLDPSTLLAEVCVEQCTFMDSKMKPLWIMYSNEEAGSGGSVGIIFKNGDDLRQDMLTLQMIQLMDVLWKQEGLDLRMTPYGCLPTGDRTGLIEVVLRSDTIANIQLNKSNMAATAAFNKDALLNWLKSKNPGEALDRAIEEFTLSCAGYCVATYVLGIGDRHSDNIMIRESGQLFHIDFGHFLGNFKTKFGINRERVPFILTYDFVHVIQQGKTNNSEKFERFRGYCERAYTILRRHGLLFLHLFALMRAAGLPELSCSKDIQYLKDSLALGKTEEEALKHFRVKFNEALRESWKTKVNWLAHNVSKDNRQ
Sequence of PI3Kδ (P27986 whole entry partner): as the sequence (P27986 whole entry partner) above

Structure (SMILES): COc1ncc(-c2nc(N3CCOCC3)nc3c(CN4CCN(C)CC4)csc23)cc1NS(=O)(=O)c1ccc(F)cc1F [Compound 68]
- IC50 (PI3Kδ): 0.071 µM
- α/δ selectivity (PI3Kα): 19

Structure (SMILES): COc1ncc(-c2nc(N3CCOCC3)nc3c(CN4CCN(C)CC4)csc23)cc1NS(=O)(=O)C1CC1 [Compound 69]
- IC50 (PI3Kδ): 0.031 µM
- α/δ selectivity (PI3Kα): 79

Structure (SMILES): CCS(=O)(=O)Nc1cc(-c2nc(N3CCOCC3)nc3c(CN4CCN(C)CC4)csc23)cnc1OC [Compound 70]
- IC50 (PI3Kδ): 0.023 µM
- α/δ selectivity (PI3Kα): 87

Structure (SMILES): COc1ncc(-c2nc(N3CCOCC3)nc3c(CN4CCN(C)CC4)csc23)cc1NS(=O)(=O)N(C)C [Compound 72]
- IC50 (PI3Kδ): 0.06 µM
- α/δ selectivity (PI3Kα): 29

Structure (SMILES): COc1ncc(-c2nc(N3CCOCC3)nc3c(CN4CCN(C(=O)[C@@H](C)O)CC4)c(C)sc23)cc1NS(C)(=O)=O [Compound 73]
- IC50 (PI3Kδ): 0.0044 µM
- α/δ selectivity (PI3Kα): 18

Structure (SMILES): COc1ncc(-c2nc(N3CCOCC3)nc3c(CN4CCN(C(=O)[C@H](C)O)CC4)c(C)sc23)cc1NS(C)(=O)=O [Compound 74]
- IC50 (PI3Kδ): 0.0044 µM
- α/δ selectivity (PI3Kα): 13

Structure (SMILES): CN1CCN(Cc2csc3c(-c4cncc(NS(C)(=O)=O)c4)nc(N4CCOCC4)nc23)CC1 [Compound 75]
- IC50 (PI3Kδ): 0.031 µM
- α/δ selectivity (PI3Kα): 19

Structure (SMILES): CCNC(=O)C1CCN(Cc2csc3c(-c4cnc(OC)c(NS(C)(=O)=O)c4)nc(N4CCOCC4)nc23)CC1 [Compound 76]
- IC50 (PI3Kδ): 0.0073 µM
- α/δ selectivity (PI3Kα): 60

Structure (SMILES): COc1ncc(-c2nc(N3CCOCC3)nc3c(CN4CCN(C5CC(C)OC(C)C5)CC4)csc23)cc1NS(C)(=O)=O (stereo not shown) [Compound 77]
- IC50 (PI3Kδ): 0.0071 µM
- α/δ selectivity (PI3Kα): 52

Structure (SMILES): COc1ncc(-c2nc(N3CCOCC3)nc3c(CN4CCC(C(C)(C)F)CC4)c(C)sc23)cc1NS(=O)(=O)C1CC1 [Compound 80]
- IC50 (PI3Kδ): 0.039 µM
- α/δ selectivity (PI3Kα): >256

Structure (SMILES): CNC1CCN(Cc2c(C)sc3c(-c4cnc(OC)c(NS(C)(=O)=O)c4)nc(N4CCOCC4)nc23)CC1 [Compound 92]
- IC50 (PI3Kδ): 0.071 µM
- α/δ selectivity (PI3Kα): 42

Structure (SMILES): COc1ncc(-c2nc(N3CCOCC3)nc3c(CN4CCC(N(C)C)CC4)c(C)sc23)cc1NS(C)(=O)=O [Compound 93]
- IC50 (PI3Kδ): 0.01 µM
- α/δ selectivity (PI3Kα): 82

Structure (SMILES): COc1ncc(-c2nc(N3CCOCC3)nc3c(CN(C)C)c(C)sc23)cc1NS(C)(=O)=O [Compound 94]
- IC50 (PI3Kδ): 0.032 µM
- α/δ selectivity (PI3Kα): 31

Structure (SMILES): COc1ncc(-c2nc(N3CCOCC3)nc3c(CN4CCNCC4)c(C)sc23)cc1NS(C)(=O)=O [Compound 96]
- IC50 (PI3Kδ): 0.031 µM
- α/δ selectivity (PI3Kα): 64

Structure (SMILES): COc1ncc(-c2nc(N3CCOCC3)nc3cc(C)sc23)cc1NS(C)(=O)=O [Compound 97]
- IC50 (PI3Kδ): 0.19 µM
- α/δ selectivity (PI3Kα): 10

Structure (SMILES): COc1ncc(-c2nc(N3CCOCC3)nc3c(CN4CCOCC4)c(C)sc23)cc1NS(C)(=O)=O [Compound 98]
- IC50 (PI3Kδ): 0.012 µM
- α/δ selectivity (PI3Kα): 30

Structure (SMILES): COc1ncc(-c2nc(N3CCOCC3)nc3c(CN4CCC(F)CC4)c(C)sc23)cc1NS(C)(=O)=O [Compound 105]
- IC50 (PI3Kδ): 0.031 µM
- α/δ selectivity (PI3Kα): 77

Structure (SMILES): COc1ncc(-c2nc(N3CCOCC3)nc3c(CN4CCC(=O)CC4)c(C)sc23)cc1NS(C)(=O)=O [Compound 107]
- IC50 (PI3Kδ): 0.011 µM
- α/δ selectivity (PI3Kα): 45

Structure (SMILES): COC(=O)C1CCN(Cc2c(C)sc3c(-c4cnc(OC)c(NS(C)(=O)=O)c4)nc(N4CCOCC4)nc23)CC1 [Compound 111]
- IC50 (PI3Kδ): 0.0065 µM
- α/δ selectivity (PI3Kα): 301

Structure (SMILES): COc1ncc(-c2nc(N3CCOCC3)nc3c(CN4CCS(=O)(=O)CC4)c(C)sc23)cc1NS(C)(=O)=O [Compound 113]
- IC50 (PI3Kδ): 0.0066 µM
- α/δ selectivity (PI3Kα): 27

Structure (SMILES): COC(=O)N1CCN(Cc2c(C)sc3c(-c4cnc(OC)c(NS(C)(=O)=O)c4)nc(N4CCOCC4)nc23)CC1 [Compound 114]
- IC50 (PI3Kδ): 0.005 µM
- α/δ selectivity (PI3Kα): 44

Structure (SMILES): COc1ncc(-c2nc(N3CCOCC3)nc3c(CN4CCC5(CC4)COC5)c(C)sc23)cc1NS(C)(=O)=O [Compound 115]
- IC50 (PI3Kδ): 0.013 µM
- α/δ selectivity (PI3Kα): 67

Structure (SMILES): COc1ncc(-c2nc(N3CCOCC3)nc3c(CN4CCn5cnnc5C4)c(C)sc23)cc1NS(C)(=O)=O [Compound 116]
- IC50 (PI3Kδ): 0.0043 µM
- α/δ selectivity (PI3Kα): 57
